Series [1] in a line: Integrated pharmacokinetics by AUC-based weighting approach. In kind it is in vivo, Sprague–Dawley (SD) rats. Conditions: Wj = AUCj0–∞ / sum of AUC0–∞; rats, oral PM 18 g/kg. As to the method:
(§1) Blood samples were collected from the fundus into heparinized 1.5 mL polythene tubes at 5, 15, and 30 min and 1, 2, 4, 8, 12, and 24 h after oral administration of PM (18 g/kg). The blood samples were immediately centrifuged at 3500 rpm for 10 min to obtain plasma. Next, the plasma obtained was prepared for HPLC-QQQ-MS analysis, as described before. The TSG, EG, PG, AE, and EM concentrations in plasma versus time data for each rat were analyzed using Drug and Statistics Software (DAS version 3.2.8, Beijing University of Traditional Chinese Medicine, Beijing, China).
As mentioned before, the concentration–time curve (AUC0–∞) of each constituent was obtained using DAS, and then the integrated concentration was obtain using the following equations [46]: The weighting coefficient for each component was calculated using Equations (1) and (2). The integrated concentrations were then calculated by Equation (3). (1) Wj=AUCj0−∞/∑13AUC0−∞ (2) ∑13AUC0−∞=AUC0−∞1+AUC0−∞2+AUC0−∞3 (3) cT=W1×c1+W2×c2+W3×c3 where ω represents the weighting coefficient, “j” represents the three constituents studied, C1–C3 represent the plasma concentration of the three index components studied, and CT represents the integrated plasma concentration.

A short description of series [2]: Pharmacokinetic study in rats after oral administration of PM extract (HPLC-QQQ-MS of plasma). It is filed as in vivo, Sprague–Dawley (SD) rats. The following applies: oral PM 18 g/kg; for half-life: n = 6, read-out: T1/2z (converted); for MRT last: read-out: MRT0–t; for MRT inf: read-out: MRT0–∞; for Vd/F: read-out: Vz/F. On the procedure:
Adult male Sprague–Dawley (SD) rats weighing between 180 g and 220 g were purchased from Beijing Vital River Laboratory Animal Technology Co., Ltd. (Beijing, China). The rats were kept in an animal center with air-conditioning and with a natural light–dark cycle (22 ± 1 °C and 40–50% humidity) with ad libitum access to standard food and water for a week before the experiment. All the animal procedures were in accordance with the Regulations of Experimental Animal Administration issued by the State Committee of Science and Technology of the People’s Republic of China. All the SD rats were fasted for 12 h prior to the experiment but with free access to water.
The assay was performed with an Agilent 1260 high-performance liquid chromatography system combined with Agilent 6470 QQQ MS (Agilent Technologies, CA, USA). Applied Masshunter Qualitative Analysis software (version B.07.00) and Quantitative Analysis software (version 07.00) were used for data acquisition and quantification. Analytes separation was achieved on a reversed-phase C18 column (Agilent Poroshell 120 EC-C18, 3.0 × 50 mm, 2.7 μm), which was protected by a guard column (Agilent EC-C18 3.0 × 5.0 mm, 2.7 μm). A gradient elution program composed of water (A) and acetonitrile (B) with gradient elution was used as follows: 0–1 min, 5% B; 1–3 min, 5–45% B; 3–7 min, 45–60% B; and 7–9 min, 60–95% B. The oven temperature was maintained at 40 °C. The flow rate was set at 0.6 mL/min (with a split ratio of 1:1.8), and the injection volume was 4 μL.
Agilent QQQ MS equipped with an electrospray ionization (ESI) source was used for mass spectrometric detection. MRM mode (negative) was used for performing the quantification of TSG, EG, PG, AE, and EM. The other MS conditions were set as follows: gas temperature, 300 °C, gas flow, 8 L/min; nebulizer, 55 psi; and sheath gas flow, 11 L/min.
A simple pretreatment method for protein precipitation was carried out to clean up the plasma samples prior to LC-MS/MS analysis. The plasma sample was thawed to room temperature. An aliquot of pre-cooled 800 μL of acetonitrile and 100 μL of IS solution (100 ng/mL) was added to a 300 μL plasma sample in a centrifuge tube. The tubes were vortexed for 10 min and spun in a centrifuge at 12,000 rpm for 15 min at 4 °C. The supernatant was transferred into a separate tube and dried using a vacuum concentrator, and the samples were re-dissolved with 100 μL of pure methanol. Next, the tube was vortexed for 10 min and spun in a centrifuge at 12,000 rpm for 15 min at 4 °C again. The supernatant was then injected into the HPLC-QQQ-MS instrument for analysis.
as §1

A short description of series [3]: Stability of analytes in rat plasma (QC samples, storage and freeze–thaw). In kind it is in vitro ADME. Conditions: for Stability in rat plasma (in words): 4 °C for 48 h, −80 °C for 10 days, three freeze–thaw cycles; for Stability Re (%), 4 °C, 48 h / Stability Re (%), −80 °C, 10 Days / Stability Re (%), Three Freeze–Thaw Cycles: rat plasma, n = 6; for Stability Re (%), Three Freeze–Thaw Cycles: −80 °C to 25 °C. On the procedure: Samples for bioanalytical method validation were prepared by spiking 100 μL of blank rat plasma and 100 μL of IS solution in bulk with different standard solutions to obtain appropriate concentrations for serial standard working solutions with the matrix and QC samples (TSG, PG, AE, and EM: 0.50 ng/mL (lower limit of quantitation, LLOQ), 10.0 ng/mL (low quality control, LQC), 200 ng/mL (medium quality control, MQC), and 640 ng/mL (high quality control, HQC); EG: 0.125 ng/mL (LLOQ), 2.50 ng/mL (LQC), 50.0 ng/mL (MQC), and 160 ng/mL (HQC)). All the stock solutions, working solutions, and samples were stored at −80 °C pending use.
Stability experiments were performed to evaluate the stability of the analytes in rat plasma at the LQC, MQC, and HQC under different time and temperature conditions. These included short-term stability (4 °C for 48 h), long-term stability (−80 °C for 10 days), and stability over three freeze–thaw cycles (−80 °C to 25 °C) by analyzing QC samples.

The mark [4] stands for this setting: male, Sprague-Dawley, rat, plasma, po, 18 g/kg, n = 6.
[5] abbreviates: male, Sprague-Dawley, rat, plasma, po, 18 g/kg.
Where [6] appears, read: male, Sprague-Dawley, rat plasma, n = 6.
Where [7] appears, read: HQC: spiked 640 ng/mL (EG 160 ng/mL).
[8] abbreviates: LQC: spiked 10.0 ng/mL (EG 2.50 ng/mL).
The mark [9] stands for this setting: MQC: spiked 200 ng/mL (EG 50.0 ng/mL).
Where [10] appears, read: male, Sprague-Dawley, rat plasma, n = 6, read-out: Tmax.

Read-outs that look alike come from different tables or passages of the source.

For `O=C1c2cccc(O)c2C(=O)c2c(O)cc(CO)cc21` [AE, aloe-emodin], the “Weighting coefficient (AUC0–∞ share)” value in series [1] came to 2.799%. Besides, the AUC(0-inf) (usually total exposure, with the tail of the curve extrapolated) in series [2] (setting [4]) was determined as 70.3 ± 13.8 ng·h/mL. In series [2] (setting [5]), the half-life was 6.42 ± 2.17 h. Further, in series [2] (setting [6]), the AUC(0-t) (as a rule, the area under the concentration-time curve up to a stated or last time point) was 64.5 ± 9.4 ng·h/mL; the maximum concentration (Cmax) (as a rule, the maximum level reached in the sampled fluid or tissue) was found to be 17.9 ± 2.94 ng/mL; the MRT last came to 6.5 ± 1.42 h; the MRT inf amounted to 8.57 ± 3.02 h. Besides, in series [2] (setting [6]), the Vd/F is 407 ± 113 L/kg. In series [2] (rat plasma, n = 6), the CLz/F came out at 756 ± 131 mL/min/kg and the Tmax – broadly, the time at which the peak concentration occurs – is given as 0.25 ± 0.00 h. For the same compound, the “Stability in rat plasma (in words)” value in series [3] is “stable”. In series [3] (setting [7]), the “Stability Re (%), 4 °C, 48 h” value is given as 90.21%; the “Stability Re (%), −80 °C, 10 Days” value turned out to be 100.1%; the “Stability Re (%), Three Freeze–Thaw Cycles” value stood at 96.94%. Besides, in series [3] (setting [8]), the “Stability Re (%), 4 °C, 48 h” value was 94.77%; the “Stability Re (%), −80 °C, 10 Days” value is reported as 90.27%; the “Stability Re (%), Three Freeze–Thaw Cycles” value is recorded as 90.50%. Besides, in series [3] (setting [9]), the “Stability Re (%), 4 °C, 48 h” value came out at 97.05%; the “Stability Re (%), −80 °C, 10 Days” value turned out to be 89.62%; the “Stability Re (%), Three Freeze–Thaw Cycles” value is 91.44%.

The compound `Cc1cc(O)c2c(c1)C(=O)c1cc(O)cc(O)c1C2=O` [EM, emodin] yielded an AUC(0-inf) in series [2] (setting [4]) of 1020 ± 300 ng·h/mL. Moreover, the half-life in series [2] (setting [5]) is 11.1 ± 5.22 h. Also, in series [2] (setting [6]), the AUC(0-t) was determined as 1020 ± 142 ng·h/mL, the Cmax is 388 ± 32.1 ng/mL, the MRT last was 6.82 ± 0.545 h and the Vd/F turned out to be 152 ± 51.5 L/kg. For the same compound, in series [2] (rat plasma, n = 6), the “AUC0–∞” value worked out at 1041 ± 300.2 ng·h/mL, the CLz/F was found to be 171 ± 42.3 mL/min/kg, the “MRT0–∞” value is 12.71 ± 5.092 h and the T1/2z is on record as 11.1 ± 5.22 h. Further, in series [3], the “Stability in rat plasma (in words)” value was “stable”. Moreover, in series [3] (setting [7]), the “Stability Re (%), 4 °C, 48 h” value is reported as 85.19%; the “Stability Re (%), −80 °C, 10 Days” value turned out to be 111.7%; the “Stability Re (%), Three Freeze–Thaw Cycles” value was determined as 99.10%. In series [3] (setting [8]), the “Stability Re (%), 4 °C, 48 h” value was found to be 86.36%; the “Stability Re (%), −80 °C, 10 Days” value turned out to be 97.48%; the “Stability Re (%), Three Freeze–Thaw Cycles” value is on record as 96.37%. In series [3] (setting [9]), the “Stability Re (%), 4 °C, 48 h” value is 92.05%; the “Stability Re (%), −80 °C, 10 Days” value is recorded as 99.40%; the “Stability Re (%), Three Freeze–Thaw Cycles” value stood at 98.71%.

As to `COc1cc(O)c2c(c1)C(=O)c1cc(C)cc(OC3OC(CO)C(O)C(O)C3O)c1C2=O` [PG, physcion-8-O-β-D-glucoside], the half-life in series [2] (setting [5]) was 12.3 ± 10.1 h. Further, in series [2] (setting [6]), the AUC(0-inf) turned out to be 205 ± 95.6 ng·h/mL, the AUC(0-t) amounted to 146 ± 19.4 ng·h/mL, the peak concentration (Cmax) amounted to 20 ± 2.69 ng/mL and the MRT last stood at 8.41 ± 1.01 h. Also, in series [2] (setting [6]), the MRT inf was determined as 17.6 ± 13.9 h and the Vd/F was determined as 242 ± 71.8 L/kg. Also, the time of peak concentration (Tmax) in series [2] (setting [10]) was 0.25 h. Moreover, in series [2] (rat plasma, n = 6), the CLz/F was 290 ± 103 mL/min/kg and the T1/2z came to 12.3 ± 10.1 h. Further, the “Stability in rat plasma (in words)” value in series [3] was “stable”. For the same compound, in series [3] (setting [7]), the “Stability Re (%), 4 °C, 48 h” value is 92.41%; the “Stability Re (%), −80 °C, 10 Days” value amounted to 96.88%; the “Stability Re (%), Three Freeze–Thaw Cycles” value stood at 98.03%. In addition, in series [3] (setting [8]), the “Stability Re (%), 4 °C, 48 h” value worked out at 98.55%; the “Stability Re (%), −80 °C, 10 Days” value is 90.14%; the “Stability Re (%), Three Freeze–Thaw Cycles” value came to 88.21%. Also, in series [3] (setting [9]), the “Stability Re (%), 4 °C, 48 h” value is recorded as 90.36%; the “Stability Re (%), −80 °C, 10 Days” value is listed as 94.69%; the “Stability Re (%), Three Freeze–Thaw Cycles” value is 94.08%.

`OCC1OC(Oc2c(O)cc(O)cc2C=Cc2ccc(O)cc2)C(O)C(O)C1O` [TSG, trans-2,3,5,4′-tetrahydroxystilbene-2-O-β-D-glucoside]: the “Weighting coefficient (AUC0–∞ share)” value in series [1] worked out at 30.19%. For the same compound, the half-life in series [2] (setting [5]) is 2.22 ± 1.34 h. Besides, in series [2] (setting [6]), the AUC(0-inf) was 758 ± 58.6 ng·h/mL, the AUC(0-t) worked out at 758 ± 58.9 ng·h/mL, the Cmax came out at 728 ± 104 ng/mL and the MRT last came out at 1.22 ± 0.182 h. Moreover, in series [2] (setting [6]), the MRT inf was 1.23 ± 0.203 h and the Vd/F was 2000 ± 1270 L/kg. Further, the Tmax in series [2] (setting [10]) worked out at 0.25 h. Moreover, the CLz/F in series [2] (rat plasma, n = 6) is 10300 ± 769 mL/min/kg. Further, the “Stability in rat plasma (in words)” value in series [3] was “stable”. In series [3] (setting [7]), the “Stability Re (%), 4 °C, 48 h” value is 97.86%; the “Stability Re (%), −80 °C, 10 Days” value came to 92.72%; the “Stability Re (%), Three Freeze–Thaw Cycles” value is reported as 99.01%. In addition, in series [3] (setting [8]), the “Stability Re (%), 4 °C, 48 h” value turned out to be 100.1%; the “Stability Re (%), −80 °C, 10 Days” value worked out at 97.92%; the “Stability Re (%), Three Freeze–Thaw Cycles” value is listed as 91.38%. In addition, in series [3] (setting [9]), the “Stability Re (%), 4 °C, 48 h” value worked out at 92.13%; the “Stability Re (%), −80 °C, 10 Days” value turned out to be 95.95%; the “Stability Re (%), Three Freeze–Thaw Cycles” value turned out to be 95.27%.

Values taken from PMC9740939, “A Network-Pharmacology-Combined Integrated Pharmacokinetic Strategy to Investigate the Mechanism of Potential Liver Injury due to Polygonum multiflorum” (Molecules, 2022).
